From ChEMBL document CHEMBL3352059, “Neuroprotective effects of a brain permeant 6-aminoquinoxaline derivative in cell culture conditions that model the loss of dopaminergic neurons in Parkinson disease” (Eur J Med Chem, 2015) come the findings set out here.

The species named for series [1] is Rattus norvegicus. In words: Antiproliferative activity at Sprague-Dawley rat DA neurons assessed as reduction of [3H]-thymidine incorporation at 1 mM after 8 days by liquid scintillation spectrometry. Type of series: functional. For orientation: Incorporation of labelled thymidine or its analogues reports DNA synthesis.
Series [2] is filed under the species Rattus norvegicus. In words: Neuroprotective effect in Sprague-Dawley rat DA neurons at 1 mM after 10 days by immunofluorescence assay. Type of series: functional.
The species named for series [3] is Rattus norvegicus. Description: Neuroprotective effect in Sprague-Dawley rat DA neurons after 10 days by immunofluorescence assay. In kind it is functional.
Series [4] is filed under the species Rattus norvegicus. Description: Neuroprotective effect in Sprague-Dawley rat DA neurons assessed as [3H]-DA uptake after 10 days by liquid scintillation spectrometry relative to control. In kind it is functional.
Series [5] is filed under the species Rattus norvegicus. In words: Neuroprotective effect in Sprague-Dawley rat DA neurons assessed as developement of neuritic network after 10 days by microscopic analysis relative to control. Type of series: functional.
Series [6] is filed under the species Rattus norvegicus. In words: Neuroprotective effect in Sprague-Dawley rat DA neurons at 10 uM under chronic oxidative stress condition. Type of series: functional.
Series [7] is filed under the species Rattus norvegicus. In words: Neuroprotective effect in Sprague-Dawley rat DA neurons at 10 uM after 10 days by immunofluorescence assay. In kind it is functional.
Series [8] is filed under the species Rattus norvegicus. In words: Neuroprotective effect in Sprague-Dawley rat DA neurons assessed as [3H]-DA uptake at 10 uM after 10 days by liquid scintillation spectrometry relative to control. In kind it is functional.
Series [9] is filed under the species Rattus norvegicus. Description: Neuroprotective effect in Sprague-Dawley rat DA neurons assessed as developement of neuritic network at 10 uM after 10 days by microscopic analysis relative to control. In kind it is functional.
A short description of series [10]: Aqueous solubility of the compound at pH 7.4 after 5 mins by HPLC analysis. Type of series: physicochemical.
Series [11] can be described thus: Antioxidant activity assessed as radical scavenging activity after 1 hr by ABTS competition assay. In kind it is physicochemical.
The subject of series [12] is Brain. In words: Drug uptake in C57BL/6J mouse brain at 75 mg/kg, po after 1 hr by MALDI-TOF mass spectrometry. Type of series: ADME, organism-based. On the set-up: dose 75 mg/kg, route oral. The following applies: in vivo.
The next series deals with Striatum. Description: Drug uptake in C57BL/6J mouse striatum at 75 mg/kg, po after 1 hr by MALDI-TOF mass spectrometry. Type of series: ADME, organism-based. Details: dose 75 mg/kg, route oral. Particulars: in vivo.
For the next series, the system named is Nucleic Acid. Description: Ratio of drug uptake in C57BL/6J mouse striatum to cortical area at 75 mg/kg, po after 1 hr by MALDI-TOF mass spectrometry. Type of series: ADME, organism-based. On the set-up: dose 75 mg/kg, route oral. The following applies: in vivo.
Series [13] is described as follows: Drug uptake in C57BL/6J mouse ventral mesencephalon at 75 mg/kg, po after 1 hr by MALDI-TOF mass spectrometry. On the set-up: dose 75 mg/kg, route oral. The following applies: in vivo. Type of series: ADME, organism-based.
The species named for series [14] is Rattus norvegicus. In words: Antiproliferative activity at Sprague-Dawley rat DA neurons assessed as reduction of [3H]-thymidine incorporation at 50 to 100 uM after 8 days by liquid scintillation spectrometry. Type of series: functional.
Series [15] is filed under the species Rattus norvegicus. Description: Neuroprotective effect in Sprague-Dawley rat DA neurons at 100 uM in presence of anti-GDNF antibody AB-212-NA. Type of series: functional.
The species entered for series [16] is Rattus norvegicus. Description: Neuroprotective effect in Sprague-Dawley rat DA neurons under GDNF deprived condition at 50 to 100 uM. In kind it is functional.
For series [17], the species on record is Rattus norvegicus. Description: Neuroprotective effect in Sprague-Dawley rat DA neurons under chronic oxidative stress condition. Type of series: functional.
Series [18] is filed under the species Rattus norvegicus. In words: Neuroprotective effect in Sprague-Dawley rat DA neurons at 100 uM after 10 days by immunofluorescence assay. In kind it is functional.
The species entered for series [19] is Rattus norvegicus. Description: Neuroprotective effect in Sprague-Dawley rat DA neurons assessed as [3H]-DA uptake at 100 uM after 10 days by liquid scintillation spectrometry relative to control. Type of series: functional.
The species entered for series [20] is Rattus norvegicus. In words: Neuroprotective effect in Sprague-Dawley rat DA neurons assessed as developement of neuritic network at 100 uM after 10 days by microscopic analysis relative to control. In kind it is functional.
Series [21] relates to Mus musculus. Description: Toxicity in C57BL/6J mouse assessed as behavioral change at 150 mg/kg, po bid administered for 4 days followed by single dose on day 5 […]. In kind it is organism-based. Details: dose 150 mg/kg, route oral. The following applies: in vivo, 96 h.
Series [22] has as its system Mus musculus. Description: Toxicity in C57BL/6J mouse assessed as change in food intake at 150 mg/kg, po bid administered for 4 days followed by single dose on day 5 […]. Type of series: organism-based. On the set-up: dose 150 mg/kg, route oral. The following applies: in vivo, 96 h.
For series [23], the system named is Mus musculus. Description: Toxicity in C57BL/6J mouse assessed as change in body weight at 150 mg/kg, po bid administered for 4 days followed by single dose on day 5 […]. Particulars: in vivo, 96 h. On the set-up: dose 150 mg/kg, route oral. In kind it is organism-based.
The subject of series [24] is Brain. In words: Drug uptake in C57BL/6J mouse brain at 150 mg/kg, po bid administered for 4 days followed by single dose on day 5 measured 1 hr post last dose. Type of series: ADME, organism-based. The following applies: in vivo. Details: dose 150 mg/kg, route oral.
Series [25] in a line: Ratio of drug uptake from brain to plasma in C57BL/6J mouse at 150 mg/kg, po bid administered for 4 days followed by single dose on day 5 measured 1 hr post last dose. Type of series: ADME, organism-based. On the set-up: dose 150 mg/kg, route oral. Particulars: read-out: BPR.

Values after ≈ are worked out from the molar mass of the structure shown. Active and inactive are the calls of the source. No cut-off for these calls is given here.

`CCCC(=O)Nc1ncnc2c1ncn2[C@@H]1O[C@@H]2COP(=O)(O)O[C@H]2[C@H]1OC(=O)CCC`: the outcome in the series filed under Rattus norvegicus [1] and in the series filed under Rattus norvegicus [2] was Active.

Consider `CCCCc1cnc2ccc(N)cc2n1`, for which the result in the series filed under Rattus norvegicus [3], in the series filed under Rattus norvegicus [4] and in the series listed under Rattus norvegicus [5] was inactive.

On to `CC(=O)N(O)CCCCCNC(=O)CCC(=O)N(O)CCCCCNC(=O)CCC(=O)N(O)CCCCCN`, for which the outcome in the series listed under Rattus norvegicus [6] was Active.

In the case of `CCCCCCCCCCCCCCCNc1ccc2nc(C)cnc2c1`, the outcome in the series filed under Rattus norvegicus [7] was inactive. Moreover, the result in the series listed under Rattus norvegicus [8] and in the series filed under Rattus norvegicus [9] was Active. Moreover, the solubility at 5 min in series [10] came to 5 µM (≈ 1.85 µg/mL).

For `CCCCCCc1nc2ccc(N)cc2nc1CCCC`, the result in the series filed under Rattus norvegicus [3], in the series listed under Rattus norvegicus [4] and in the series filed under Rattus norvegicus [5] was inactive.

Consider `Cc1c(C)c2c(c(C)c1O)CCC(C)(C(=O)O)O2` (configuration not stated) [TROLOX], for which the IC50 in [11] stood at 270 µM.

Take `CCCCc1nc2cc(N)ccc2nc1C`: the result in the series listed under Rattus norvegicus [3], in the series listed under Rattus norvegicus [4] and in the series filed under Rattus norvegicus [5] was inactive.

With `Cc1nc2ccc(N)cc2nc1-c1ccccc1`, the Drug uptake entry (in the series on Brain [12]; in the series on Striatum; in series [13]; in the series on Brain [24]) was “Active” in each case. Also, in the series on Nucleic Acid, the Ratio stood at 2.7. The result in the series filed under Rattus norvegicus [14], in the series listed under Rattus norvegicus [15], in the series filed under Rattus norvegicus [16], in the series listed under Rattus norvegicus [6], in the series listed under Rattus norvegicus [18] and in the series listed under Rattus norvegicus [19] was Active. Besides, the result in the series filed under Rattus norvegicus [20] was Active. Besides, in [11], the IC50 is 350 µM. The Activity entry is “Dose-dependent effect” in the series listed under Rattus norvegicus [17], “Non-toxic” in the series on Mus musculus [21], “Non-toxic” in the series with Mus musculus [22] and “Non-toxic” with Mus musculus [23]. For the same molecule, the concentration in solution in series [10] (solubility at 5 min) was 125 µM (≈ 29.4 µg/mL). The Kp at 1 h in series [25] stood at 1.

On to `Nc1ccc2nccnc2c1`, for which the outcome in the series listed under Rattus norvegicus [3], in the series listed under Rattus norvegicus [4] and in the series listed under Rattus norvegicus [5] was inactive.

As to `Cc1cnc2cc(N)ccc2n1`, the outcome in the series filed under Rattus norvegicus [3], in the series filed under Rattus norvegicus [4] and in the series listed under Rattus norvegicus [5] was inactive.

What is called solubility is the concentration that dissolves in the medium under given conditions. A lower solubility goes with a poorly soluble substance. One may read the IC50 as the concentration that gives 50% inhibition.
